In US20240279089A1, “METHOD FOR CONTROLLING THE GROWTH OF MICROORGANISMS” (RED BULL GMBH, priority 2021, published 2024):

What was measured:
microorganisms = experiment: Germ count in process water of pasteurization plants (Plate Count Agar); type: cell-based
Description: In order to examine the influence of chlorine dioxide on the microbial quality of process water, the process water of a first pasteurization plant was mixed with the aqueous solution according to the invention containing chlorine dioxide, and the process water of a second pasteurization plant was mixed with a biocide.
(§1) The aqueous solution according to the invention containing chlorine dioxide (prepared with the persulfate-chlorite process) was metered discontinuously into the process water of the first pasteurization plant in an amount so as to keep the redox potential of the process water in the range of 400 to 800 mV. When the redox potential in the process water fell below 400 to 450 mV, the aqueous solution according to the invention containing chlorine dioxide was metered in until a redox potential between 750 and 800 mV was reached.
In contrast, bronopol was added to the process water of the second pasteurization plant on a time-controlled basis (every three days) in such an amount that the concentration of bronopol in the process water was […]. […]
The germ count in 1 ml of sample was determined using “Plate Count Agar” (PCA), with the appropriate amount of process water being applied to PCA plates. One plate at a time was incubated at 37° C., and one plate at a time was incubated at 28° C. The evaluation of the germ count took place after 2 and 5 days, respectively.

[1] = Redox potential of treated process water; type: physicochemical
Description: as §1
Concurrently. the redox potential of the pasteurization plant in which chlorine dioxide was metered into the process water was measured at the time of sampling for determining the germ count.
In 5 measurements within the examination period. the redox potential of the process water treated with bronopol always amounted to more than 1000 mV.

With `O=[N+]([O-])C(Br)(CO)CO` [bronopol, reference compound] as the compound, how does the “Germ count/ml process water” value (microorganisms; 1 Mar. 2021) read?
The value was over 10000 mL⁻¹.

What about the “Germ count/ml process water” value (microorganisms; 2 Feb. 2021) of the same compound?
The value was 81600 mL⁻¹.

And the “Germ count/ml process water” value (microorganisms; 4 Feb. 2021)?
Its value is over 10000 mL⁻¹.

What about the “Germ count/ml process water” value (microorganisms; 4 Jan. 2021) of the same compound?
The value was 3600 mL⁻¹.

What about the “Germ count/ml process water” value (microorganisms; 5 Apr. 2021) of the same compound?
The value was over 10000 mL⁻¹.

What about the “Germ count/ml process water” value (microorganisms; 7 Jan. 2021) of the same compound?
The value was 4200 mL⁻¹.

And the “Germ count/ml process water” value (microorganisms; 8 Apr. 2021)?
The value was over 10000 mL⁻¹.

What about the “Germ count/ml process water” value (microorganisms; 8 Feb. 2021) of the same compound?
The value was over 10000 mL⁻¹.

What about the “Germ count/ml process water” value (microorganisms; 11 Feb. 2021) of the same compound?
The value was over 10000 mL⁻¹.

And the “Germ count/ml process water” value (microorganisms; 11 Jan. 2021)?
The value was 3400 mL⁻¹.

And the “Germ count/ml process water” value (microorganisms; 12 Apr. 2021)?
Its value is over 10000 mL⁻¹.

And the “Germ count/ml process water” value (microorganisms; 12 Mar. 2021)?
The value was over 10000 mL⁻¹.

And the “Germ count/ml process water” value (microorganisms; 14 Jan. 2021)?
Its value is over 10000 mL⁻¹.

And the “Germ count/ml process water” value (microorganisms; 15 Apr. 2021)?
Its value is over 10000 mL⁻¹.

What about the “Germ count/ml process water” value (microorganisms; 15 Mar. 2021) of the same compound?
The value was over 10000 mL⁻¹.

What about the “Germ count/ml process water” value (microorganisms; 17 Feb. 2021) of the same compound?
Its value is 76000 mL⁻¹.

What about the “Germ count/ml process water” value (microorganisms; 18 Feb. 2021) of the same compound?
The value was over 10000 mL⁻¹.

What about the “Germ count/ml process water” value (microorganisms; 18 Jan. 2021) of the same compound?
The value was over 10000 mL⁻¹.

And the “Germ count/ml process water” value (microorganisms; 18 Mar. 2021)?
The value was over 10000 mL⁻¹.

And the “Germ count/ml process water” value (microorganisms; 19 Apr. 2021)?
The value was over 10000 mL⁻¹.

And the “Germ count/ml process water” value (microorganisms; 21 Jan. 2021)?
Its value is 60200 mL⁻¹.

What about the “Germ count/ml process water” value (microorganisms; 22 Feb. 2021) of the same compound?
Its value is over 10000 mL⁻¹.

And the “Germ count/ml process water” value (microorganisms; 22 Mar. 2021)?
The value was over 10000 mL⁻¹.

And the “Germ count/ml process water” value (microorganisms; 23 Apr. 2021)?
The value was over 10000 mL⁻¹.

What about the “Germ count/ml process water” value (microorganisms; 25 Jan. 2021) of the same compound?
The value was over 10000 mL⁻¹.

What about the “Germ count/ml process water” value (microorganisms; 25 Mar. 2021) of the same compound?
The value was over 10000 mL⁻¹.

What about the “Germ count/ml process water” value (microorganisms; 26 Apr. 2021) of the same compound?
The value was over 10000 mL⁻¹.

And the “Germ count/ml process water” value (microorganisms; 26 Feb. 2021)?
The value was 51000 mL⁻¹.

And the “Germ count/ml process water” value (microorganisms; 28 Jan. 2021)?
The value was 54400 mL⁻¹.

And the “Germ count/ml process water” value (microorganisms; 29 Apr. 2021)?
The value was over 10000 mL⁻¹.

What about the “Germ count/ml process water” value (microorganisms; 29 Mar. 2021) of the same compound?
Its value is over 10000 mL⁻¹.

What about the “redox potential of the process water” value ([1]; 5 measurements within the examination period) of the same compound?
Its value is “more than 1000 mV”.

What does the source list for `[O][Cl+][O-]` [chlorine dioxide]?
Germ count/ml process water (microorganisms; 1 Mar. 2021): 940 mL⁻¹; Germ count/ml process water (microorganisms; 2 Feb. 2021): 7040 mL⁻¹; Germ count/ml process water (microorganisms; 4 Feb. 2021): 800 mL⁻¹; Germ count/ml process water (microorganisms; 4 Jan. 2021): 280 mL⁻¹; Germ count/ml process water (microorganisms; 5 Apr. 2021): 160 mL⁻¹; Germ count/ml process water (microorganisms; 7 Jan. 2021): 3840 mL⁻¹; Germ count/ml process water (microorganisms; 8 Apr. 2021): 2800 mL⁻¹; Germ count/ml process water (microorganisms; 8 Feb. 2021): 80 mL⁻¹; Germ count/ml process water (microorganisms; 11 Feb. 2021): 100 mL⁻¹; Germ count/ml process water (microorganisms; 11 Jan. 2021): 3480 mL⁻¹; Germ count/ml process water (microorganisms; 12 Apr. 2021): 6560 mL⁻¹; Germ count/ml process water (microorganisms; 12 Mar. 2021): 9200 mL⁻¹; Germ count/ml process water (microorganisms; 14 Jan. 2021): 3120 mL⁻¹; Germ count/ml process water (microorganisms; 15 Apr. 2021): 700 mL⁻¹; Germ count/ml process water (microorganisms; 15 Mar. 2021): 100 mL⁻¹; Germ count/ml process water (microorganisms; 17 Feb. 2021): 200 mL⁻¹; Germ count/ml process water (microorganisms; 18 Feb. 2021): 1120 mL⁻¹; Germ count/ml process water (microorganisms; 18 Jan. 2021): 4160 mL⁻¹; Germ count/ml process water (microorganisms; 18 Mar. 2021): 60 mL⁻¹; Germ count/ml process water (microorganisms; 19 Apr. 2021): 140 mL⁻¹; Germ count/ml process water (microorganisms; 21 Jan. 2021): 2100 mL⁻¹; Germ count/ml process water (microorganisms; 22 Feb. 2021): 1740 mL⁻¹; Germ count/ml process water (microorganisms; 22 Mar. 2021): 8000 mL⁻¹; Germ count/ml process water (microorganisms; 23 Apr. 2021): 2020 mL⁻¹; Germ count/ml process water (microorganisms; 25 Jan. 2021): 4800 mL⁻¹; Germ count/ml process water (microorganisms; 25 Mar. 2021): 10000 mL⁻¹; Germ count/ml process water (microorganisms; 26 Apr. 2021): 4500 mL⁻¹; Germ count/ml process water (microorganisms; 26 Feb. 2021): 2340 mL⁻¹; Germ count/ml process water (microorganisms; 28 Jan. 2021): 500 mL⁻¹; Germ count/ml process water (microorganisms; 29 Apr. 2021): 3700 mL⁻¹; Germ count/ml process water (microorganisms; 29 Mar. 2021): 10000 mL⁻¹; germ count compared with conventional biocide (in words) (microorganisms; redox potential kept at 400 to 800 mV, 4 months): lower germ count; Redox potential in process water ([1]; 1 Mar. 2021): 720 mV; Redox potential in process water ([1]; 2 Feb. 2021): 710 mV; Redox potential in process water ([1]; 4 Feb. 2021): 550 mV; Redox potential in process water ([1]; 4 Jan. 2021): 810 mV; Redox potential in process water ([1]; 5 Apr. 2021): 770 mV; Redox potential in process water ([1]; 7 Jan. 2021): 740 mV; Redox potential in process water ([1]; 8 Apr. 2021): 640 mV; Redox potential in process water ([1]; 8 Feb. 2021): 800 mV; Redox potential in process water ([1]; 11 Feb. 2021): 750 mV; Redox potential in process water ([1]; 11 Jan. 2021): 710 mV; Redox potential in process water ([1]; 12 Apr. 2021): 450 mV; Redox potential in process water ([1]; 12 Mar. 2021): 580 mV; Redox potential in process water ([1]; 14 Jan. 2021): 700 mV; Redox potential in process water ([1]; 15 Apr. 2021): 800 mV; Redox potential in process water ([1]; 15 Mar. 2021): 760 mV; Redox potential in process water ([1]; 17 Feb. 2021): 780 mV; Redox potential in process water ([1]; 18 Feb. 2021): 740 mV; Redox potential in process water ([1]; 18 Jan. 2021): 620 mV; Redox potential in process water ([1]; 18 Mar. 2021): 780 mV; Redox potential in process water ([1]; 19 Apr. 2021): 780 mV; Redox potential in process water ([1]; 21 Jan. 2021): 540 mV; Redox potential in process water ([1]; 22 Feb. 2021): 510 mV; Redox potential in process water ([1]; 22 Mar. 2021): 660 mV; Redox potential in process water ([1]; 23 Apr. 2021): 560 mV; Redox potential in process water ([1]; 25 Jan. 2021): 420 mV; Redox potential in process water ([1]; 25 Mar. 2021): 490 mV; Redox potential in process water ([1]; 26 Apr. 2021): 630 mV; Redox potential in process water ([1]; 26 Feb. 2021): 640 mV; Redox potential in process water ([1]; 28 Jan. 2021): 790 mV; Redox potential in process water ([1]; 29 Apr. 2021): 680 mV; Redox potential in process water ([1]; 29 Mar. 2021): 430 mV
